Where only a bound is given, the exact number is not on record here.

In patent US10344025B2, “GLS1 inhibitors for treating disease” (Board of Regents, The University of Texas System, priority 2014, dated 2019) one finds EC50 and IC50 data, which are given here for nine compounds.

Assay [1] relates to A549 cells. Kind of assay: Proliferation Assay (A549 viability, Cell Titer Fluor, 72 hours). The following applies: Homo sapiens. The assay is classed as cell-based. The procedure, abridged:
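Cell Titer Fluor fluorescence after 72 h compound treatment (0.5% DMSO, 37 °C, 5% CO2) of A549 cells plated 24 h earlier at 1000/well. Four-parameter logistic fitting gave IC50.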

The target of assay [2] is purified recombinant human GAC (GLS1) (Homo sapiens (Human), UniProt O94925). Kind of assay: GLS1 Enzymatic Activity Assay (dual-coupled enzymatic assay, resorufin/Amplex UltraRed readout).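 Also: glutamate from GAC coupled via glutamate oxidase and peroxidase to resorufin, read as fluorescence (ex 530, em 590 nm) kinetically or at 20 min, four-parameter logistic IC50 fit.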 The assay is classed as biochemical.
Sequence of purified recombinant human GAC (GLS1) (O94925 other isoform, or with tags, fused parts or gaps): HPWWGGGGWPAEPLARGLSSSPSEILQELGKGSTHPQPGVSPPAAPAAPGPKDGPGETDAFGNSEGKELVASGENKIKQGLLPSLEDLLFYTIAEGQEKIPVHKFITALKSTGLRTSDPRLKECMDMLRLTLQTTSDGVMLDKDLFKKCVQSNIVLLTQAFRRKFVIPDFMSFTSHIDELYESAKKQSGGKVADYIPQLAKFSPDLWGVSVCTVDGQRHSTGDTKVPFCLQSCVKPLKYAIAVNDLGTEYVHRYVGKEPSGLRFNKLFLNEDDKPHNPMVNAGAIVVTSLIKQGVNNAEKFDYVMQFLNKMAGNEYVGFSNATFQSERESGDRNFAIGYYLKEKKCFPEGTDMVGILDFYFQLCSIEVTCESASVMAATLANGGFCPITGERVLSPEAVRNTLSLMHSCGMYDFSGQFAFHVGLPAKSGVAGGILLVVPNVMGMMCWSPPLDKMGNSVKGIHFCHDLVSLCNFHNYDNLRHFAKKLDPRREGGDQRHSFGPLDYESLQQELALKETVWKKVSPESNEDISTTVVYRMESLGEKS

As for `O=C(CN1CC(F)C1)Nc1cn(CCCCn2cc(C(=O)NCc3cccc(OC(F)(F)F)c3)nn2)nn1` [Example 329, 1-(4-{4-[2-(3-fluoroazetidin-1-yl)acetamido]-1H-1,2,3-triazol-1-yl}butyl)-N-{[3-(trifluoromethoxy)phenyl]methyl}-1H-1,2,3-triazole-4-carboxamide], in assay [1] (A549, 72 h), the EC50 (commonly the concentration needed to bring the measured effect to its halfway point) lay within 500 to 5000 nM. Moreover, the IC50 (commonly the concentration that gives 50% inhibition) in assay [2] is 100 to 500 nM.
For `O=C(CN1CC(F)(F)C1)Nc1cn(CCCCn2cc(C(=O)NCc3cccc(OC(F)(F)F)c3)nn2)nn1` [Example 330, 1-(4-{4-[2-(3,3-difluoroazetidin-1-yl)acetamido]-1H-1,2,3-triazol-1-yl}butyl)-N-{[3-(trifluoromethoxy)phenyl]methyl}-1H-1,2,3-triazole-4-carboxamide] the same measures were 100 to 500 nM and below 100 nM.
For `O=C(CN1CCC(F)(F)C1)Nc1cn(CCCCn2cc(C(=O)NCc3cccc(OC(F)(F)F)c3)nn2)nn1` [Example 331, 1-(4-{4-[2-(3,3-difluoropyrrolidin-1-yl)acetamido]-1H-1,2,3-triazol-1-yl}butyl)-N-{[3-(trifluoromethoxy)phenyl]methyl}-1H-1,2,3-triazole-4-carboxamide] the same measures were 100 to 500 nM and below 100 nM.
Take `O=C(CN1CCC(F)(F)CC1)Nc1cn(CCCCn2cc(C(=O)NCc3cccc(OC(F)(F)F)c3)nn2)nn1` [Example 332, 1-(4-(4-(2-(4,4-difluoropiperidin-1-yl)acetamido)-1H-1,2,3-triazol-1-yl)butyl)-N-(3-(trifluoromethoxy)benzyl)-1H-1,2,3-triazole-4-carboxamide]: the EC50 in assay [1] was in the range of 100 to 500 nM. For the same compound, the IC50 in assay [2] is below 100 nM.
`O=C(Cc1cccc(OC(F)(F)F)c1)Nc1cn(CCCCn2cc(C(=O)NCc3cc(Cl)ccc3F)nn2)nn1` [Example 334, N-[(5-chloro-2-fluorophenyl)methyl]-1-[4-(4-{2-[3-(trifluoromethoxy)phenyl]acetamido}-1H-1,2,3-triazol-1-yl)butyl]-1H-1,2,3-triazole-4-carboxamide] came in with an EC50 in assay [1] (A549, 72 h) below 100 nM. Also, the IC50 in assay [2] is below 100 nM.
In assay [1] (A549, 72 h), `Cc1ccc(CC(=O)Nc2cn(CCCCn3cc(C(=O)NCc4cc(OC(F)(F)F)ccc4F)nn3)nn2)cn1` [Example 335, N-{[2-fluoro-5-(trifluoromethoxy)phenyl]methyl}-1-(4-{4-[2-(6-methylpyridin-3-yl)acetamido]-1H-1,2,3-triazol-1-yl}butyl)-1H-1,2,3-triazole-4-carboxamide] displayed an EC50 below 100 nM. The IC50 in assay [2] was below 100 nM.
In the case of `Cc1ccc(CC(=O)Nc2cn(CCCCn3cc(C(=O)NCc4cc(Cl)ccc4F)nn3)nn2)cn1` [Example 336, N-[(5-chloro-2-fluorophenyl)methyl]-1-(4-{4-[2-(6-methylpyridin-3-yl)acetamido]-1H-1,2,3-triazol-1-yl}butyl)-1H-1,2,3-triazole-4-carboxamide], the EC50 in assay [1] (A549, 72 h) lay within 100 to 500 nM. Besides, in assay [2], the IC50 was below 100 nM.
For `O=C(Cc1ccccn1)Nc1cn(CCCCn2cc(C(=O)NCc3cc(OC(F)(F)F)ccc3F)nn2)nn1` [Example 337, N-{[2-fluoro-5-(trifluoromethoxy)phenyl]methyl}-1-(4-{4-[2-(pyridin-2-yl)acetamido]-1H-1,2,3-triazol-1-yl}butyl)-1H-1,2,3-triazole-4-carboxamide] the same measures were below 100 nM and below 100 nM.
For `O=C(Cc1ccccn1)Nc1cn(CCCCn2cc(C(=O)NCc3cc(Cl)ccc3F)nn2)nn1` [Example 338, N-[(5-chloro-2-fluorophenyl)methyl]-1-(4-{4-[2-(pyridin-2-yl)acetamido]-1H-1,2,3-triazol-1-yl}butyl)-1H-1,2,3-triazole-4-carboxamide] the same measures were 100 to 500 nM and below 100 nM.
